In ChEMBL document CHEMBL2321649 (Bioorg Med Chem, 2013):

Tests used:
[1] = Antivascular activity against human EAhy926 cells assessed as rounding up morphology after 2 hrs by microscopic analysis; type: functional; conditions: EA.hy 926, 2 h, read-out: MEC
B16 = assay: Cytotoxicity against mouse B16 cells after 48 hrs by MTT assay; type: functional, cell-based; conditions: B16, 48 h
Tubulin = assay: Inhibition of tubulin (unknown origin) assessed as inhibition of GTP-induced polymerization incubated for 45 mins prior to GTP-addition measured after 2 hrs by DAPI-staining based fluorimetric analysis; type: protein-complex assay, Homo sapiens

Row | IC50 (Tubulin) [nM] | SMILES | minimal effective concentration [1] [µM] | IC50 (B16) [nM]
1 | 1300 | COc1cc([C@@H]2C[C@@H]2/C=C/c2ccccc2)cc(OC)c1OC | 0.5 | 570
2 | 300 | COc1ccc([C@@H]2C[C@@H]2c2cc(OC)c(OC)c(OC)c2)cc1O | 0.12 | 300
3 | 1000 | COc1ccc(C2CC2c2cc(OC)c(OC)c(OC)c2)cc1O (racemic) | 0.12 | 320
4 | 4500 | COc1cc([C@H]2C[C@H]2/C=C/c2ccccc2)cc(OC)c1OC | 3.13 | 2740
5 | 26300 | COc1ccc(C2CC2c2cc(OC)c(OC)c(OC)c2)cc1[N+](=O)[O-] (racemic) | 3.13 | 15400

The next lines start with the compound.

Row | SMILES | IC50 (Tubulin) [nM] | minimal effective concentration [1] [µM] | IC50 (B16) [nM]
6 | COc1cc(C2CC2/C=C/c2ccccc2)cc(OC)c1OC (racemic) | 1800 | 0.5 | 620
7 | COc1ccc(C2CC2c2cc(OC)c(OC)c(OC)c2)cc1N (racemic) | 2800 | 0.12 | 290
8 | COc1ccc([C@H]2C[C@H]2c2cc(OC)c(OC)c(OC)c2)cc1O | 6800 | 0.5 | 520
9 | COc1ccc(/C=C\c2cc(OC)c(OC)c(OC)c2)cc1O [COMBRETASTATIN A4] |  | 0.006 | 3
